# Several values for one entry are separate records, joined by “and”; a condition that tells them apart may be missing. Equal entries are not always repeated. Where two headings read alike, the source gives them in different places.
# What was measured:
# [1] = system: RAC1; conditions: IBD patients; cited from earlier work
# [2] = system: SARS-CoV-2; conditions: human, in vivo
# [3] = system: SARS-CoV-2; conditions: human, in vivo; remark: listed apart in the source
# [4] = system: Ebola virus; conditions: read-out: 50% inhibitive concentration [IC50]; cited from earlier work
# [5] = system: MERS-CoV; conditions: read-out: 50% effective concentration [EC50]; cited from earlier work
# [6] = system: SARS-CoV-1; conditions: cited from earlier work
# [7] = system: SARS-CoV-2; conditions: cited from earlier work
# [8] = system: Ebola virus; conditions: mouse, in vivo; cited from earlier work
# [9] = cited from earlier work
# [10] = in vivo; cited from earlier work
structure (smiles),measurement,setting,value
"S=c1nc[nH]c2nc[nH]c12 [Mercaptopurine, mercaptopurine]",RAC1 expression,[1],lower RAC1 expression
COc1ccccc1OCCNCC(O)COc1cccc2[nH]c3ccccc3c12 (centres unmarked) [carvedilol],odds ratio of a positive laboratory test result for SARS-CoV-2,[2],0.74 and 0.90 and 0.73
COc1ccc2[nH]cc(CCNC(C)=O)c2c1 [melatonin],odds ratio of a positive laboratory test result for SARS-CoV-2,[3],0.36 and 0.35 and 0.56 and 0.46
same,odds ratio of SARS-CoV-2 positive test,[2],0.52 and 0.61 and 0.80
CN(C)CCOc1ccc(/C(=C(/CCCl)c2ccccc2)c2ccccc2)cc1 [toremifene],IC50,[4],~1 µM
same,EC50,[5],12.9 µM
same,EC50,[6],12 µM
same,IC50,[7],3.58 µM
same,survival rate,[8],significantly improved survival rate
same,bound to plasma protein,[9],99%
same,bioavailability,[10],good

# Reference: patent US20230233489A1 (priority 2020, published 2023)
